From patent US11053234B2 (GlaxoSmithKline Intellectual Property Development Limited, priority 2016, dated 2021)

Target: T1, haematopoietic prostaglandin D synthase (H-PGDS) (Homo sapiens, UniProt O60760)
T1 construct: Full length human H-PGDS cDNA (Invitrogen Ultimate ORF 10H13026) was amplified by PCR; 6-His (N); TEV protease cleavage site (N); made in house; host or cells: E. coli BL21 (DE3*), vector pET22b+
Assay: H-PGDS RapidFire high throughput mass spectrometry assay (conversion of PGH2 to PGD2)
Assay type: biochemical
Details: 10 nM H-PGDS, PGH2 formed in situ by COX-2 from arachidonic acid; read-out: Potency Range (mean pIC50) (converted)
Procedure: H-PGDS RapidFire™ High Throughput Mass Spectrometry Assay
The H-PGDS RapidFire™ mass spectrometric assay monitors conversion of prostaglandin H2 (PGH2) to prostaglandin D2 (PGD2) by haematopoietic prostaglandin D synthase (H-PGDS). In the assay format described here, the substrate (PGH2) is formed in situ by the action of cyclooxygenase-2 on arachidonic acid. This first step is set up to be fast, and generates a burst of PGH2 at ˜10 μM. The PGH2 is then further converted to PGD2 by the H-PGDS enzyme. […] Plates are then read on the RapidFire™ high throughput solid phase extraction system (Agilent) which incorporates a solid phase extraction step coupled to a triple quadrupole mass spectrometer (AB SCIEX). Relative levels of PGD2 and PGF2α, which acts as a surrogate for substrate, are measured and a percent conversion calculated.
Expression and Purification of H-PGDS Protein
Full length human H-PGDS cDNA (Invitrogen Ultimate ORF 10H13026) was amplified by PCR with the addition of a 5′ 6-His tag and TEV protease cleavage site. The PCR product was digested with Ndel and Xhol and ligated into pET22b+ (Merck Novagen®). Expression was carried out in E. coli strain BL21 (DE3*) using auto-induction Overnight Express™ Instant TB medium (Merck Novagen®) supplemented with 1% glycerol. The culture was first grown at 37° C. and the temperature was reduced to 25° C. when OD600 reached 2.0. Cells were harvested by centrifugation after a further 18 hr. 10 g of E. coli cell pellet was suspended to a total volume of 80 mL in lysis buffer (20 mM Tris-Cl pH 7.5, 300 mM NaCl, 20 mM imidazole, 5 mM β-mercaptoethanol, 10% glycerol). 1 mg/mL protease inhibitors (Protease Inhibitor Cocktail Set III, Merck Calbiochem®) and 1 mg/mL lysozyme were added to the cell suspension. The suspension was then sonicated for 5 min (UltraSonic Processor VCX 750, Cole-Parmer Instrument Co.) with a micro probe (50% amplitude, 10 sec on/off) and then centrifuged at 100,000 g for 90 min (at 4° C.). The supernatant was loaded onto a Ni-NTA HiTrap column (5 mL, GE Healthcare, pre-equilibrated in lysis buffer). The column was washed with 10 column volumes of lysis buffer and eluted with lysis buffer containing 500 mM imidazole. The pooled protein peak fractions were concentrated using a 10 kDa centrifugal filter at 3500 g and 4° C. (Amicon Ultra-15 centrifugal filter unit with Ultracel-10 membrane from Millipore). Further purification of the concentrated protein was carried out using gel filtration chromatography on a HiLoad 26/600 Superdex 75 preparative grade column (GE Healthcare Life Sciences) using 50 mM Tris pH 7.5, 50 mM NaCl, 1 mM dithiothreitol, 1 mM MgCl2. Fractions containing the protein were pooled, concentrated as described above, and stored at −80° C.
Expression and Purification of Cyclooxygenase-2 (COX-2) Protein
The full length human COX-2 gene (accession number L15326) was amplified by PCR to generate an EcoRI-HindIII fragment containing an in-frame FLAG tag. This was subcloned into pFastBac 1 (Invitrogen). The COX2 FLAG plasmid was recombined into the baculovirus genome according to the BAC-to-BAC protocol described by Invitrogen. Transfection into Spodoptera frugiperda (Sf9) insect cells was performed using Cellfectin (Invitrogen), according to the manufacturer's protocol. […] Cells were harvested using a continuous feed centrifuge run at 2500 g at a rate of approximately 2 L/min with cooling. The resultant cell slurry was re-centrifuged in pots (2500 g, 20 min, 4° C.) and the cell paste was stored at −80° C. […] The suspension was sonicated in 500 mL batches for 8×5 seconds at 10 u amplitude with the medium tip of an MSE probe sonicator and subsequently incubated at 4° C. for 90 min with gentle stirring. The lysate was centrifuged at 12000 rpm for 45 min at 4° C. in a Sorvall SLA1500 rotor. The supernatant (1400 mL) was added to 420 mL of 20 mM Tris-Cl pH 7.4, 150 mM NaCl, 0.1 mM EDTA to reduce the concentration of n-octyl-6-D-glucopyranoside to 1% w/v.

T1 sequence (O60760 whole entry): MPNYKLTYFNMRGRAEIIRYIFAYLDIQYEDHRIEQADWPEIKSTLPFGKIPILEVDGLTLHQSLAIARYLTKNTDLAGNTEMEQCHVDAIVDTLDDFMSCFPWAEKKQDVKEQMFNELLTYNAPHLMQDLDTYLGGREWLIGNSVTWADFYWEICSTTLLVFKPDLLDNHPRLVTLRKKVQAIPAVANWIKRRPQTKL

| Structure (SMILES) | IC50 |
| --- | --- |
| O=C(N[C@H]1CC[C@@H](NC(CO)C(F)(F)F)CC1)[C@H]1C[C@H](Oc2cc(F)cc3scnc23)C1 (mixture of isomers) [Example 125, Racemic (trans)-3-((6-Fluorobenzo[d]thiazol-4-yl)oxy)-N-((cis)-4-((1,1,1-trifluoro-3-hydroxypropan-2-yl)amino)cyclohexyl)cyclobutanecarboxamide] | 10 to 79.4 nM |
| O=C(N[C@H]1CC[C@H](N[C@@H](CO)C(F)(F)F)CC1)N1CC(Oc2cccc3scnc23)C1 [Example 53, 3-(Benzo[d]thiazol-4-yloxy)-N-((trans)-4-(((S)-1,1,1-trifluoro-3-hydroxypropan-2-yl)amino)cyclohexyl)azetidine-1-carboxamide] | 10 to 79.4 nM |
| Cc1cccc(NC(=O)[C@H]2C[C@H](Oc3cccc4cccnc34)C2)n1 [Example 181, (trans)-N-(6-Methylpyridin-2-yl)-3-(quinolin-8-yloxy)cyclobutanecarboxamide] | 10 to 79.4 nM |
| O=C(O)c1csc(NC(=O)[C@H]2C[C@H](Oc3cccc4cccnc34)C2)n1 [Example 193, 2-((trans)-3-(Quinolin-8-yloxy)cyclobutanecarboxamido)thiazole-4-carboxylic acid] | 10 to 79.4 nM |
| CC(C)(C)c1nnc(NC(=O)[C@H]2C[C@H](Oc3cccc4cccnc34)C2)o1 [Example 179, (trans)-N-(5-(tert-Butyl)-1,3,4-oxadiazol-2-yl)-3-(quinolin-8-yloxy)cyclobutanecarboxamide] | 10 to 79.4 nM |
| O=C(NC1CCCOC1)N1CC(Oc2cccc3scnc23)C1 (racemic) [Example 90, Racemic 3-(Benzo[d]thiazol-4-yloxy)-N-(tetrahydro-2H-pyran-3-yl)azetidine-1-carboxamide] | 100 to 1000 nM |
| CC1C(Oc2cc(F)cc3scnc23)CN1C(=O)N[C@H]1CC[C@H](C(C)(C)O)CC1 (mixture of isomers) [Example 236, Racemic 3-((6-Fluorobenzo[d]thiazol-4-yl)oxy)-N-((trans)-4-(2-hydroxypropan-2-yl)cyclohexyl)-2-methylazetidine-1-carboxamide] | 10 to 79.4 nM |
| CN1CCN([C@H]2CC[C@H](NC(=O)N3CC(Oc4cccc5scnc45)C3)CC2)C1=O [Example 102, 3-(Benzo[d]thiazol-4-yloxy)-N-((trans)-4-(3-methyl-2-oxoimidazolidin-1-yl)cyclohexyl)azetidine-1-carboxamide] | 100 to 1000 nM |
| Cn1ccc(NC(=O)N2CC(Oc3cccc4scnc34)C2)n1 [Example 322, 3-(Benzo[d]thiazol-4-yloxy)-N-(1-methyl-1H-pyrazol-3-yl)azetidine-1-carboxamide] | 100 to 1000 nM |
| CC(N[C@H]1CC[C@H](NC(=O)N2CC(Oc3cc(F)cc4scnc34)C2)CC1)C(F)F (mixture of isomers) [Example 142, Racemic N-((trans)-4-((1,1-Difluoropropan-2-yl)amino)cyclohexyl)-3-((6-fluorobenzo[d]thiazol-4-yl)oxy)azetidine-1-carboxamide] | 10 to 79.4 nM |
| O=C(NC1CCc2ccccc21)[C@H]1C[C@H](Oc2cccc(Cl)c2)C1 (mixture of isomers) [Example 286, Racemic (trans)-3-(3-Chlorophenoxy)-N-(2,3-dihydro-1H-inden-1-yl)cyclobutanecarboxamide] | 10 to 79.4 nM |
| CC(C)(O)[C@H]1CC[C@H](NC(=O)N2CC(Oc3cc(F)ccc3OC(F)F)C2)CC1 [Example 1, 3-(2-(Difluoromethoxy)-5-fluorophenoxy)-N-((trans)-4-(2-hydroxypropan-2-yl)cyclohexyl)azetidine-1-carboxamide] | 100 to 1000 nM |
| N#Cc1ccnc(N2CC(NC(=O)N3CC(Oc4cccc5scnc45)C3)C2)c1 [Example 52, 3-(Benzo[d]thiazol-4-yloxy)-N-(1-(4-cyanopyridin-2-yl)azetidin-3-yl)azetidine-1-carboxamide] | 10 to 79.4 nM |
| O=C(Nc1nnc(C2CC2)s1)[C@H]1C[C@H](Oc2cccc3cccnc23)C1 [Example 199, (trans)-N-(5-Cyclopropyl-1,3,4-thiadiazol-2-yl)-3-(quinolin-8-yloxy)cyclobutanecarboxamide] | 10 to 79.4 nM |
| O=C(NC1CN(c2ccnc(Cl)n2)C1)[C@H]1C[C@H](Oc2cc(F)ccc2OC(F)F)C1 [Example 6, (trans)-N-(1-(2-Chloropyrimidin-4-yl)azetidin-3-yl)-3-(2-(difluoromethoxy)-5-fluorophenoxy)cyclobutanecarboxamide] | 10 to 79.4 nM |
| CN(C)C(=O)c1coc(NC(=O)[C@H]2C[C@H](Oc3cccc4cccnc34)C2)n1 [Example 172, N,N-Dimethyl-2-((trans)-3-(quinolin-8-yloxy)cyclobutanecarboxamido)oxazole-4-carboxamide] | 10 to 79.4 nM |
| O=C(NC1CN(c2ncc(F)cn2)C1)[C@H]1C[C@H](Oc2cccc3scnc23)C1 [Example 78, (trans)-3-(Benzo[d]thiazol-4-yloxy)-N-(1-(5-fluoropyrimidin-2-yl)azetidin-3-yl)cyclobutanecarboxamide] | 10 to 79.4 nM |
| O=C(NC1CN(c2cccnn2)C1)[C@H]1C[C@H](Oc2cccc3scnc23)C1 [Example 245, (trans)-3-(Benzo[d]thiazol-4-yloxy)-N-(1-(pyridazin-3-yl)azetidin-3-yl)cyclobutanecarboxamide] | 10 to 79.4 nM |
| Cn1nnnc1NC(=O)[C@H]1C[C@H](Oc2cc(F)ccc2OC(F)F)C1 [Example 3, (trans)-3-(2-(Difluoromethoxy)-5-fluorophenoxy)-N-(1-methyl-1H-tetrazol-5-yl)cyclobutanecarboxamide] | 100 to 1000 nM |
| CS(=O)(=O)N1CCC(NC(=O)[C@H]2C[C@H](Oc3cccc4cccnc34)C2)CC1 [Example 219, (trans)-N-(1-(Methylsulfonyl)piperidin-4-yl)-3-(quinolin-8-yloxy)cyclobutanecarboxamide] | 100 to 1000 nM |
| CCOC(=O)Cc1csc(NC(=O)[C@H]2C[C@H](Oc3cccc4ccoc34)C2)n1 [Example 262, Ethyl 2-(2-((trans)-3-(benzofuran-7-yloxy)cyclobutanecarboxamido)thiazol-4-yl)acetate] | 10 to 79.4 nM |
| Cc1cnc(NC(=O)[C@H]2C[C@H](Oc3cccc4cccnc34)C2)s1 [Example 217, (trans)-N-(5-Methylthiazol-2-yl)-3-(quinolin-8-yloxy)cyclobutanecarboxamide] | 10 to 79.4 nM |
| COC(=O)N1CCOC(CNC(=O)N2CC(Oc3cccc4scnc34)C2)C1 (racemic) [Example 94, Racemic Methyl 2-((3-(benzo[d]thiazol-4-yloxy)azetidine-1-carboxamido)methyl)morpholine-4-carboxylate] | 100 to 1000 nM |
| COc1cc(F)ccc1O[C@H]1C[C@H](C(=O)N[C@H]2CC[C@H](C(C)(C)O)CC2)C1 [Example 277, (trans)-3-(4-Fluoro-2-methoxyphenoxy)-N-((trans)-4-(2-hydroxypropan-2-yl)cyclohexyl)cyclobutanecarboxamide] | 100 to 1000 nM |
| Cc1nnc(NC(=O)[C@H]2C[C@H](Oc3cccc4cccnc34)C2)s1 [Example 203, (trans)-N-(5-Methyl-1,3,4-thiadiazol-2-yl)-3-(quinolin-8-yloxy)cyclobutanecarboxamide] | 10 to 79.4 nM |
